From patent US10596145B2, “Heterocyclic flavone derivatives, compositions, and methods related thereto” (Emory University, priority 2012, dated 2020)
“Also recorded” adds a separate entry of the source.

Columns and labels:
TrkB [1] = target: T1, TrkB (Rattus norvegicus, UniProt Q63604); test: TrkB activation in primary cortical neurons (immunoblotting); type: cell-based; details: 500 nM, 15 min
T1 construct: endogenous in cells; host or cells: primary cortical neurons from E17 rat embryos
Experimental: Primary cortical cultures from E17 rat embryos were treated with 500 nM of various synthetic flavone derivatives for 15 min. The cell lysates (20 μg) were analyzed by the immunoblotting.
Rat primary neurons were treated with 500 nM various indicated compounds from 15 min. The neuronal lysates ([…]) were analyzed with various antibodies.
500 nM of different synthetic compounds were added to DIV 7 neurons for 15 min. The cell lysates were analyzed by immunoblotting with indicated p-Akt 473 antibodies.
Replacing the 3′-dimethylamino group or 4′-morpholino group was tested for TrkB agonistic activity. To compare the TrkB activation by these compounds, primary cortical cultures were prepared and treated them with 500 nM of various compounds for 15 min and collected the cell lysates. […] The p-Akt ELISA analysis results were similar to the TrkB activation pattern (FIG. 2B, lower panel).

TrkB [2] = target: T2, TrkB (Mus musculus, UniProt P15209); test: TrkB phosphorylation in mouse brain after oral administration (immunoblotting, immunohistochemistry); type: in vivo
T2 construct: from tissue; host or cells: mouse brain (hippocampus, cortex), C57BL/6
Experimental: One mg/kg of various indicated compounds were orally administrated into C57 BL/6J mice and TrkB phosphorylation and its downstream signaling cascades including Akt and MAPK in the hippocampus of mouse brain were analyzed by immunoblotting at 4 h. […] The downstream p-Akt and p-MAPK activity coupled to the TrkB activation patterns.
Time course assay with 4′-dimethylamino-7,8-imidazole flavone. One mg/kg of compound (i) and compound (m) were orally administrated into C57 BL/6J mice and TrkB phosphorylation and its downstream signaling cascades including Akt in mouse brain were analyzed by immunoblotting at various time points. TrkB activation by compound m peaked at 4 h, whereas the maximal TrkB activation by compound i in mouse brain occurred at 1-2 h. Arrows indicate the p-TrkB in mature glycosylated or unglycosylated forms (top panels). The downstream Akt activation pattern tightly correlated with the upstream TrkB activation.
Male C57BL/6 mice aged of two months were administrated orally with 4′-DMA-7,8-DHF derivatives at a single dose of 1 mg/kg for 4 h. The control mice were injected with saline. The mice were sacrificed and brains were homogenated and ultracentrafuged. The supernatant (40 μg) was employed for SDS-PAGE and immunoblotting analysis with indicated antibodies, respectively. Male C57BL/6 mice aged of two months were administrated orally with compound (i) or (m) at the dose of 5 mg/kg/day each and compound o or p at the dose of 2.5 mg/kg/day each for 21 days. BrdU (100 mg/kg) was i. p. injected two hours before the TrkB agonist treated animals were sacrificed and the hippocampal section lysates were analyzed by immunoblotting with p-TrkB and total TrkB antibodies, p-AKT ELISA.
Brain tissues were fixed in 4% paraformaldehyde overnight followed by paraffin embedding. Sections of 6 μm were cut. For immunohistochemical staining, brain sections were deparaffinized in xylene and rehydrated in graded alcohols. Endogenous peroxidase activity was blocked by 3% hydrogen peroxide for 5 min and all slides were boiled in 10 mM sodium citrate buffer (pH 6.0) for 10 min. Phosphorylated TrkB 816 and TrkB were detected using specific antibodies. Paraffin section were deparaffinized in xylene and rehydrated gradient ethanol solution. Samples were boiled in 10 mM sodium citrate buffer for 20 min for antigen retrieval purpose. Brain sections were incubated with anti-TrkB (BD Biosciences, San Jose, Calif.) 1:50, p-TrkB 1:300 dilution. Secondary antibody was applied using anti-rabbit-Alexa 594 (red), anti-mouse-fluorescein isothiocyanate (FITC) (green). DAPI (blue) was used for nuclear staining.

C57BL/6J mice [3] = test: Forced swim test; type: in vivo, mouse
Experimental: Male C57BL/6J mice (6 mice/group) were orally administrated by gavage with 5 mg/kg compound (m) or compound (i) and vehicle solvent saline for 21 days and subjected to a forced swim test (6 min, immobility recorded in the last 4 min). Data are presented as mean±SEM. (n=6, ***P<0.0001 vs vehicle, Student t-test).
Forced swim test. Male C57BL/6J mice (8 mice/group) were orally administrated by gavage with 2.5 mg/kg compound o or compound p and vehicle solvent saline for 21 days and subjected to a forced swim test (6 min, immobility recorded in the last 4 min). […] Data are presented as mean±SEM.
Adult male mice (2-3 months old) were randomly submitted to a forced swim test without a preswim. Test compounds were orally administrated by gavage for 21 days. The mice were allowed to adapt to the test room for 2 days. The mice were placed in a clear glass cylinder with a diameter of 16 cm, half-filled with clear water at 24° C.

C57BL/6J mice [4] = test: Tail suspension test; type: in vivo, mouse; details: 2.5 mg/kg oral, 21 days
Experimental: The drug-treated mice were subjected tail suspension assay. […] Data are presented as mean±SEM.
One suspends mice by the tail to a horizontal ring stand bar 30 cm above the floor using adhesive tape for 6 minutes and videotaped. Latency to immobility and time spent immobile will be scored for each mouse. Following the test, mice will be returned to their home cage. Immobility scores were compared by unpaired t test.

[5] = Reactive metabolic screening assay; type: in vitro ADME; details: liver microsomal lysates
Excerpt: To explore these compounds' in vitro ADMET profiles, we conducted numerous in vitro assays.

[6] = In vivo pharmacokinetic studies in mice; parameters: species or system mouse; details: in vivo
Experimental: For compound a, the standard dosage of 1 mg/kg via i.v. injection and 5 mg/kg for P.O. route was employed. […] Presumably, the dosage is too low for the in vivo PK assay. Thus, the doses of the tested compound o were increased. […] Moreover, the bioavailability is around 2% for compound o at a 10 mg/kg dosage.
Twenty to thirty grams mice within the age of 6-8 weeks old were administrated with the indicated compounds i. v. or orally. At different time points (3, 10, 30, 60, 120, 240, 360 and 480 min), blood aliquots (300-400 μl) were collected in tubes coated with lithium heparin, mixed gently, then kept on ice and centrifuged at 2500×g for 15 min at 4° C., within 1 h of collection. The plasma was then harvested and kept frozen at −20° C. until further processing. For each time point, 3 mice/group were employed. The plasma samples were analyzed by HPLC.

T2 sequence (P15209 32-821): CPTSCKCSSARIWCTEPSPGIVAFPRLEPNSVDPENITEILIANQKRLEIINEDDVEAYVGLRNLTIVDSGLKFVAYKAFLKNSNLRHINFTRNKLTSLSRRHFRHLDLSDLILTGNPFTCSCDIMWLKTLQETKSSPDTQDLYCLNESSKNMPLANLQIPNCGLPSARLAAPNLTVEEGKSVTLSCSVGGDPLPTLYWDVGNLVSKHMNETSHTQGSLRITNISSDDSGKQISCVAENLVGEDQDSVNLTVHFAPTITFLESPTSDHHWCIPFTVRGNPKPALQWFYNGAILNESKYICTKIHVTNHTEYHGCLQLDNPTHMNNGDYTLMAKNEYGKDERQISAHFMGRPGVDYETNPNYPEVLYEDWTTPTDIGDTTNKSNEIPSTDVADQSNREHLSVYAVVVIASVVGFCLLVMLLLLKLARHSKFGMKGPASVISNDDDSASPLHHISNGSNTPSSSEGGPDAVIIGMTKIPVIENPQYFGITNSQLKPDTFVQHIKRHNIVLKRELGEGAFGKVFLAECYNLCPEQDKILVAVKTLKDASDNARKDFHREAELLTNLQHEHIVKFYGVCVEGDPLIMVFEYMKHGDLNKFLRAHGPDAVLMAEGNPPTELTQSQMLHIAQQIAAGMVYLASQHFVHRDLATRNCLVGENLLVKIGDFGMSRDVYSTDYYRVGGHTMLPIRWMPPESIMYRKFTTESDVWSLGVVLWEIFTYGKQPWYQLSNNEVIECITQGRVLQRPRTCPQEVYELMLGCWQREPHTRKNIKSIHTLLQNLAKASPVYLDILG
T1 sequence (Q63604 32-821): as the sequence (P15209 32-821) above, with T3M, S9T, A10T, V32I, R63K, S84G, M153T, L185I, S394T, S770N counted along it

Cc1nc2ccc3c(=O)cc(-c4ccc(N5CCCC5)cc4)oc3c2[nH]1 [compound o, 2-methyl-8-(4-(pyrrolidin-1-yl)phenyl)chromeno[7,8-d]imidazol-6(1H)-one]
TrkB activation (p-TrkB immunoblotting) (TrkB [1]): higher agonistic activity than compound m | TrkB activation (p-TrkB immunoblotting) (TrkB [1]; listed as 4′-pyrrolidino-7,8-methyl-imidazole-flavone): triggers TrkB activation in primary neurons | TrkB activation in mouse brain (TrkB [2]; 1 mg/kg oral, hippocampus, at 2 h): triggers TrkB activation in mouse brain | TrkB phosphorylation after chronic treatment (immunoblotting) (TrkB [2]; 2.5 mg/kg/day oral, 21 days): markedly activated TrkB receptor; also recorded: evidently elevated TrkB phosphorylation | TrkB phosphorylation in hippocampus (immunohistochemistry, anti-p-TrkB 816) (TrkB [2]; 2.5 mg/kg/day oral, chronic): elevated TrkB phosphorylation in hippocampus | reduction of immobility in forced swim test compared to vehicle control (C57BL/6J mice [3]; 2.5 mg/kg oral once a day, 3 weeks): 45% | immobility in forced swim test (C57BL/6J mice [3]; 2.5 mg/kg oral, 21 days): active in both FST and TST depression behavioral assays; also recorded: significantly decreased the immobility | immobility in tail suspension test (C57BL/6J mice [4]): active in both FST and TST depression behavioral assays; also recorded: significantly reduced the immobility versus vehicle control | reactive metabolite / adduct formation [5]: quite stable in vitro | half-life ([6]; C57BL/6, mouse, 3 mg/kg): ~1.72 h | oral bioavailability ([6]; C57BL/6, mouse, po, 10 mg/kg): 2% | AUC(0-t) ([6]; mouse, 3 mg/kg): ~312 ng·h/mL | bioavailability ([6]; mouse, po, 10 mg/kg): ~2%
